As usually defined, the IC50 is the midpoint of a concentration-inhibition curve. A higher IC50 goes with a need for much substance. As usually defined, the melting point is the temperature, or range, at which the solid turns liquid.

Data set [1] concerns the target mushroom tyrosinase. Description: Diphenolase inhibitory activity of mushroom tyrosinase (L-DOPA oxidation, spectrophotometric). The format is biochemical. The following applies: for IC50: L-DOPA 0.5 mM, pH 6.8, 25 °C. The procedure:
UCAs 3a–k, 4a–i were subjected to tyrosinase inhibitory assays by measuring the oxidation of L-DOPA according to the literature protocol.
The spectrophotometric assay for tyrosinase was performed according to the reported method with slight modifications. Briefly, all the synthesized compounds were screened for the diphenolase inhibitory activity of tyrosinase using L-DOPA as the substrate. All compounds were dissolved in DMSO. The final concentration of the test solution was 2.0%. Phosphate buffer (pH = 6.8) was used to dilute the DMSO stock solution of test compounds. Thirty units of mushroom tyrosinase (0.5 mg/mL) were firstly pre-incubated with these compounds in 50 mM phosphate buffer (pH = 6.8) at 25 °C for 10 min. L-DOPA (0.5 mM) was then added to the reaction mixture and the enzyme reaction was monitored by measuring the change in absorbance at 475 nm of the formation of L-DOPA chrome for 1 min. The measurement was performed for three times for each concentration and averaged before further calculations. IC50 values were determined by the interpolation of the dose–response curves.

Data set [2] concerns mushroom tyrosinase. Description: Inhibition kinetics by Lineweaver-Burk plots. The following applies: oxidation of L-DOPA. The class given is biochemical. As for the experimental part:
The inhibitory mechanism of selected compounds 3c, 3d, 3i and 3j against mushroom tyrosinase during the oxidation of L-DOPA was determined by the same methods. […] However, 3d and 3j containing m-dihydroxyl groups on ring B were competitive inhibitors because the intersection of those straight lines was on the Y-axis.
Concentrations of 3c, 3d, 3i and 3j for curves 1–3 were 0.0 μM, 4.06 μM, 12.18 μM; 0.0 μM, 4.06 μM, 16.23 μM; 0.0 μM, 14.8 μM, 59.2 μM; 0.0 μM, 3.70 μM, 11.09 μM, respectively.
Pre-incubation and measurement time was the same as the procedure in section 3.3. Maximal initial velocity was determined from initial linear portion of absorbance between 0 and 60 s after addition of mushroom tyrosinase. The inhibition type on the enzyme was assayed by Lineweaver–Burk plots, and the inhibition constant was determined by the second plots of the apparent Km/Vm or 1/Vm versus the concentration of compound. The same procedure was executed for other compounds.

For a further data set, the system named is CD-1 mice. Description: Acute oral toxicity in mice (OECD 423). The format is in vivo. The following applies: for Body Weight: last day; for Drinking Water / Food Intake: measured daily and averaged; for autopsy, changes in organs: mice, 1,200 mg/kg, end of experimental period (14 days). The procedure: 3d and 3j were used as the representative compounds to evaluate the toxicity in mice.
The acute toxicity of compound 3d was examined according to the OECD 423 Guideline for Testing of Chemicals Acute Oral Toxicity – Acute Toxic Class Method procedures. The test procedure was applied with an initial dose at 1,200 mg/kg. Male and female CD-1 mice (six males and six females; 7~8 weeks old) were obtained from Center of Animal Test of the Sun Yat-sen University, housed in the University-approved animal facility in rooms maintained at 22 ± 2 °C with 55%–60% humidity and 12 h photoperiod. After five-day adaptation to laboratory conditions, mice were divided into four equal groups (controls: male, female, and treated: male and female, three animals in each group, equal body mass) and given by gavage either a single dosage of 1,200 mg 3d (dispersed in 3% Tween 80 aqueous solution)/kg, and equal volumes of distilled water containing 3% Tween 80 for control groups, using a suitably graduated syringe and a stainless steel intubation cannula. Mice had free access to distilled water and commercial standard diet. Animals were observed individually after dosing at least once during the first 30 min, periodically during the first 24 h, with special attention given during the first 4 h, and daily thereafter, for a total of 14 days. All observations were systematically recorded with individual records being maintained for each animal. Individual body weight of animals was determined shortly before the test substance was administered and weekly thereafter. All the animals were sacrificed at the end of the observation period and subjected to a necropsy. The same procedure was performed for compound 3j.

As for “1-(3,4-Dihydroxyphenyl)-5-(4-hydroxy-3-methoxyphenyl)penta-1,4-dien-3-one [Compound 4g]”, the IC50 against mushroom tyrosinase [1] was over 200 µM.

“1-(3,4-Dihydroxyphenyl)-5-(4-methoxyphenyl)penta-1,4-dien-3-one [Compound 4i]”: the concentration for half-maximal inhibition (IC50) against mushroom tyrosinase [1] is over 200 µM.

The molecule “1-(4-Hydroxy-3,5-dimethoxyphenyl)-5-(4-hydroxy-3-methoxyphenyl)penta-1,4-dien-3-one [Compound 4h]” gave a 50% inhibitory concentration (IC50) at mushroom tyrosinase [1] of under 100 µM. In addition, in the data set on mushroom tyrosinase [1] (decrease relative to 4c (IC50 = 4.64 μM)), the “fold difference in activity versus 4c” value was over 16 fold.

As to `CCCCc1ccc(O)cc1O` [4-Butylresorcinol, reference compound], at mushroom tyrosinase [1], the midpoint of inhibition, the IC50, lay at 11.3 µM.

Take `COc1ccc(C=C2CCC(=Cc3ccc(O)cc3)C2=O)cc1` [Compound 3a, 2-(4-Hydroxybenzylidene)-5-(4-methoxybenzylidene)cyclopentanone]: the melting point is 241 to 243 °C. At mushroom tyrosinase [1], this molecule returned an IC50 of 189 µM.

For `COc1cc(C=C2CCC(=Cc3ccc(O)cc3)C2=O)ccc1O` [Compound 3b, 2-(4-Hydroxy-3-methoxybenzylidene)-5-(4-hydroxybenzylidene)cyclopentanone], the melting point is 278 to 280 °C. Moreover, on mushroom tyrosinase [1], the IC50 was 56.6 µM. For the same molecule, the “fold difference in activity versus 3c” value in the data set on mushroom tyrosinase [1] (decrease relative to 3c) is over 8 fold.

Molecule `O=C1C(=Cc2ccc(O)cc2)CCC1=Cc1ccc(O)c(O)c1` [Compound 3c, 2-(3,4-Dihydroxybenzylidene)-5-(4-hydroxybenzylidene)cyclopentanone] yielded a melting point of over 300 °C. Half-maximal inhibition on mushroom tyrosinase [1] (IC50) was put at 7.78 µM. For the same molecule, in the data set on mushroom tyrosinase [2], the inhibition type entry is on record as “mixed-competitive”.

Consider `O=C1C(=Cc2ccc(O)cc2)CCC1=Cc1ccc(O)cc1O` [Compound 3d, 2-(2,4-Dihydroxybenzylidene)-5-(4-hydroxybenzylidene)cyclopentanone], for which, in the data set on mushroom tyrosinase [1], the “fold lower IC50 than kojic acid” value was “about 16 fold” and the 50% inhibitory concentration (IC50) was 1.74 µM. Moreover, the “course of enzyme activity inhibition” value with mushroom tyrosinase [1] (diphenolase activity, L-DOPA, 25 °C, Figure 1) is “concentration-dependent”. The “fold lower IC50 than 4-butylresorcinol” value in the data set on mushroom tyrosinase [1] (vs 4-butylresorcinol (11.27 μM)) is given as about 6 fold. In addition, the inhibition type entry with mushroom tyrosinase [2] is on record as “competitive”. In the data set on CD-1 mice (female CD-1 mice, 1,200 mg/kg), the “Body Weight” value is recorded as 27.3 ± 2.9 g, the “Drinking Water” value came to 4.2 ± 0.5 mL/day and the “Food Intake” value came out at 4.0 ± 0.4 g/day. For the same molecule, in the data set with CD-1 mice (male CD-1 mice, 1,200 mg/kg), the “Body Weight” value was 30.9 ± 2.6 g, the “Drinking Water” value is reported as 5.6 ± 0.6 mL/day and the “Food Intake” value is 5.1 ± 0.5 g/day. Further, the “autopsy, changes in organs” value in the data set on CD-1 mice is “no apparent changes”.

The molecule `COc1cc(C=C2CCC(=Cc3ccc(O)cc3)C2=O)cc(OC)c1O` [Compound 3e, 2-(4-Hydroxy-3,5-dimethoxybenzylidene)-5-(4-hydroxybenzylidene)cyclopentanone] registered a melting point of 259 to 261 °C. This molecule yielded an IC50 at mushroom tyrosinase [1] of 9.66 µM.

Consider `CC(C)(C)c1cc(C=C2CCC(=Cc3ccc(O)cc3)C2=O)cc(C(C)(C)C)c1O` [Compound 3f, 2-(3,5-Di-tert-butyl-4-hydroxybenzylidene)-5-(4-hydroxybenzylidene)cyclopentanone], for which the melting point lay in the range of 233 to 235 °C. Further, the half-inhibitory concentration (IC50) against mushroom tyrosinase [1] stood at 168 µM.

Consider `COc1cc(C=C2CCC(=Cc3ccc(O)cc3)C2=O)cc(Br)c1O` [Compound 3g, 2-(3-Bromo-4-hydroxy-5-methoxybenzylidene)-5-(4-hydroxybenzylidene)cyclopentanone], for which the melting point lay within 241 to 243 °C. This molecule gave an IC50 on mushroom tyrosinase [1] of 173 µM.

In the case of `O=C1C(=Cc2ccc(O)cc2)CCC1=Cc1cc(Br)c(O)c(Br)c1` [Compound 3h, 2-(3,5-Dibromo-4-hydroxybenzylidene)-5-(4-hydroxybenzylidene)cyclopentanone], the melting point lay within 286 to 288 °C. On mushroom tyrosinase [1], this molecule yielded an IC50 of over 200 µM.

Consider `COc1cc(C=C2CCC(=Cc3ccc(O)c(O)c3)C2=O)ccc1O` [Compound 3i, 2-(3,4-Dihydroxybenzylidene)-5-(4-hydroxy-3-methoxybenzylidene)cyclopentanone], for which the melting point is over 300 °C. For the same molecule, in the data set with mushroom tyrosinase [2], the inhibition type entry was “mixed-competitive”.

Consider `COc1cc(C=C2CCC(=Cc3ccc(O)cc3O)C2=O)ccc1O` [Compound 3j, 2-(2,4-Dihydroxybenzylidene)-5-(4-hydroxy-3-methoxybenzylidene)cyclopentanone], for which the inhibition type entry in the data set with mushroom tyrosinase [2] was “competitive”. In the data set with CD-1 mice (female CD-1 mice, 1,200 mg/kg), the “Body Weight” value amounted to 26.9 ± 2.1 g, the “Drinking Water” value came out at 4.1 ± 0.4 mL/day and the “Food Intake” value is recorded as 3.9 ± 0.5 g/day. Further, in the data set on CD-1 mice (male CD-1 mice, 1,200 mg/kg), the “Body Weight” value stood at 30.1 ± 2.8 g, the “Drinking Water” value was 5.4 ± 0.5 mL/day and the “Food Intake” value came to 5.2 ± 0.4 g/day. Further, the “autopsy, changes in organs” value in the data set on CD-1 mice was “no apparent changes”.

For the molecule `COc1cc(C=C2CCC(=Cc3cc(OC)c(O)c(OC)c3)C2=O)ccc1O` [Compound 3k, 2-(4-Hydroxy-3,5-dimethoxybenzylidene)-5-(4-hydroxy-3-methoxybenzylidene)cyclopentanone], the melting point lay within 129 to 131 °C. Besides, the half-inhibitory concentration (IC50) against mushroom tyrosinase [1] is over 200 µM.

Turning to `COc1ccc(C=CC(=O)C=Cc2ccc(O)cc2)cc1` [Compound 4a, 1-(4-Hydroxyphenyl)-5-(4-methoxyphenyl)penta-1,4-dien-3-one], the melting point is 114 to 116 °C. At mushroom tyrosinase [1], this molecule showed an IC50 of 183 µM.

On to `COc1cc(C=CC(=O)C=Cc2ccc(O)cc2)ccc1O` [Compound 4b, 1-(4-Hydroxy-3-methoxyphenyl)-5-(4-hydroxyphenyl)penta-1,4-dien-3-one], for which the melting point is 98 to 101 °C. In addition, the IC50 against mushroom tyrosinase [1] amounted to 46.2 µM.

Molecule `O=C(C=Cc1ccc(O)cc1)C=Cc1ccc(O)c(O)c1` [Compound 4c, 1-(3,4-Dihydroxyphenyl)-5-(4-hydroxyphenyl)penta-1,4-dien-3-one] had a melting point of 181 to 183 °C. At mushroom tyrosinase [1], this molecule registered a half-inhibitory concentration (IC50) of 4.64 µM.

Consider `COc1cc(C=CC(=O)C=Cc2ccc(O)cc2)cc(OC)c1O` [Compound 4d, 1-(4-Hydroxy-3,5-dimethoxyphenyl)-5-(4-hydroxyphenyl)penta-1,4-dien-3-one], for which the melting point was 93 to 95 °C. Further, the half-inhibitory concentration (IC50) against mushroom tyrosinase [1] is 7.2 µM.

For the molecule `O=C(C=Cc1ccc(O)cc1)C=Cc1cc(Br)c(O)c(Br)c1` [Compound 4e, 1-(3,5-Dibromo-4-hydroxyphenyl)-5-(4-hydroxyphenyl)penta-1,4-dien-3-one], the melting point was 110 to 113 °C. The molecule also returned an IC50 at mushroom tyrosinase [1] of over 200 µM.

The values are drawn from article PMC6269853, “Synthesis and Biological Evaluation of Unsymmetrical Curcumin Analogues as Tyrosinase Inhibitors” (Molecules, 2013).
